Reference: PMC7827382, “Sterols and Triterpenes from Dobera glabra Growing in Saudi Arabia and Their Cytotoxic Activity” (Plants, 2021)
In brackets after ≈: the same amount, converted by molar mass. Entries after “also recorded” stand apart in the source; their conditions may differ. Like-named read-outs stand apart in the source and are kept apart here.

How the values were obtained:
[1] = tested on: colorectal cancer cell (HCT-116); assay: Cytotoxic activity, MTT assay, HCT-116; format: cell-based, human; conditions: for IC50: Homo sapiens, HCT-116, 48 h, read-out: HCT-116 IC50
[2] = tested on: prostate carcinoma cells (PC-3); assay: Cytotoxic activity, MTT assay, PC-3; format: cell-based, human; conditions: for IC50: Homo sapiens, 48 h, read-out: PC-3 IC50
[3] = tested on: hepatocellular carcinoma cells (HepG-2); assay: Cytotoxic activity, MTT assay, HepG-2; format: cell-based, human; conditions: for IC50: Homo sapiens, HepG2, 48 h, read-out: HepG-2 IC50
[4] = tested on: African green monkey kidney cell line (Vero-B); assay: Cytotoxic activity, MTT assay, normal Vero-B cells; format: cell-based; conditions: for IC50: Chlorocebus sabaeus, Vero B, read-out: VERO-B IC50
[5] = tested on: HCT-116, PC-3, and HepG-2; assay: Antitumor activity against cancer cell lines, summary in words; format: cell-based, human; conditions: HCT-116, PC-3 and HepG-2 cell lines
phosphodiesterase I = phosphodiesterase I (Crotalus adamanteus, UniProt J3SEZ3); assay: biochemical; set-up: species or system snake
phosphodiesterase I, sequence (J3SEZ3 24-851 limits assumed): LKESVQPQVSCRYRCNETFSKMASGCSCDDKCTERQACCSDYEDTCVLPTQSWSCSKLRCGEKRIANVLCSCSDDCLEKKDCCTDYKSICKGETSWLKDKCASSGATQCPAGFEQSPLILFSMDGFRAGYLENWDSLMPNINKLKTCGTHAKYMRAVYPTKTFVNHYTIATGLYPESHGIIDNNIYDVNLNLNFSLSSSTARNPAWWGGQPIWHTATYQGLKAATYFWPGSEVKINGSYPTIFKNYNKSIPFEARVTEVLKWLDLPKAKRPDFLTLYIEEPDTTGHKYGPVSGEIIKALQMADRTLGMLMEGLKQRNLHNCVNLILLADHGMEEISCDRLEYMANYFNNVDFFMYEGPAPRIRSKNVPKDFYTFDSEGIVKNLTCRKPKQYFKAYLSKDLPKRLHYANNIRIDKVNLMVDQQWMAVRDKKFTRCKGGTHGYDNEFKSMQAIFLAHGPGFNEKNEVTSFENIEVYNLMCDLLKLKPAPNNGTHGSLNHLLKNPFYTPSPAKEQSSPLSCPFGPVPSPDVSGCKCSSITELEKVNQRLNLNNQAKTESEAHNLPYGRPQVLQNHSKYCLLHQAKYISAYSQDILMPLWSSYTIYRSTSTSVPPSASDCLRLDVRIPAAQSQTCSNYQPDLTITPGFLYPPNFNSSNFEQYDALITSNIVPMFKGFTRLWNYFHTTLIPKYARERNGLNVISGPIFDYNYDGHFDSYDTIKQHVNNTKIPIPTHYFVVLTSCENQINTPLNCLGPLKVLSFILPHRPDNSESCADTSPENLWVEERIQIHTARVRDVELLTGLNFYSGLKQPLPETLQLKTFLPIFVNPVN

Vero cell line = assay: Wound-healing assay; format: cell-based, African green monkey; conditions: 35 or 70 µM; up to 48 h
[6] = MTT, 48 h incubation, ± SD of three experiments
[7] = normal cells, MTT, 48 h incubation, ± SD of three experiments

N.N.[Cl][Pt][Cl] [Cisplatin, cis-diamineplatinum (II) dichloride, reference compound] was tested, and the “HCT-116 IC50” value [1, 6] was 12.6 ± 2 µg/mL, the “PC-3 IC50” value [2, 6] was 5 ± 0.45 µg/mL and the “HepG-2 IC50” value [3, 6] was 5 ± 1.5 µg/mL. For the same molecule, the “VERO-B IC50” value [4, 7] was 11 ± 1.3 µg/mL.
C=C(C)[C@@H]1CC[C@]2(C)CC[C@]3(C)[C@H](CC[C@@H]4[C@@]5(C)CC[C@H](O)C(C)(C)[C@@H]5CC[C@]43C)[C@@H]12 [Compound 1, lupeol] showed an IC50 [1, 6] greater than 100 µg/mL, an IC50 [2, 6] greater than 100 µg/mL and an IC50 [3, 6] greater than 100 µg/mL. The IC50 [4, 7] was greater than 100 µg/mL.
CC(=O)[C@@H]1CC[C@]2(C)CC[C@]3(C)[C@H](CC[C@@H]4[C@@]5(C)CC[C@H](O)C(C)(C)[C@@H]5CC[C@]43C)[C@@H]12 [Compound 2, 30-norlup-3β-ol-20-one] showed an IC50 [1, 6] greater than 100 µg/mL, an IC50 [2, 6] greater than 100 µg/mL and an IC50 [3, 6] greater than 100 µg/mL. For the same molecule, the IC50 [4, 7] was greater than 100 µg/mL.
C=C(C)[C@@H]1CC[C@]2(C)CC[C@]3(C)[C@@H](CC[C@@H]4[C@@]5(C)C=CC(=O)C(C)(C)[C@@H]5CC[C@]43C)[C@@H]12 [Compound 3, ∆^1-lupenone] showed an IC50 [1, 6] greater than 100 µg/mL, an IC50 [2, 6] greater than 100 µg/mL and an IC50 [3, 6] greater than 100 µg/mL. The IC50 [4, 7] was greater than 100 µg/mL.
Molecule C=C(CO)[C@@H]1CC[C@]2(C)CC[C@]3(C)[C@H](CC[C@@H]4[C@@]5(C)CC[C@H](O)C(C)(C)[C@@H]5CC[C@]43C)[C@@H]12 [Compound 4, lup-20(29)-ene-3β,30-diol] has an IC50 [1, 6] greater than 100 µg/mL, an IC50 [2, 6] greater than 100 µg/mL and an IC50 [3, 6] greater than 100 µg/mL. The IC50 [4, 7] was greater than 100 µg/mL.
Work on C=C(C)[C@@H]1CC[C@]2(C)CC[C@]3(C)[C@H](CC[C@@H]4[C@@]5(C)CCC(OC(=O)/C=C/c6ccc(O)c(O)c6)C(C)(C)[C@@H]5CC[C@]43C)[C@@H]12 (some centres unmarked) [Compound 5, lupeol caffeate] yielded an IC50 [1, 6] of 59 ± 0.45 µg/mL (≈ 100 µM), an IC50 [2, 6] of 59 ± 0.45 µg/mL (≈ 100 µM) and an IC50 [3, 6] of 59 ± 0.45 µg/mL (≈ 100 µM). It also gave an IC50 [4, 7] of 81 ± 1.1 µg/mL (≈ 138 µM).
C=C(CO)[C@@H]1CC[C@]2(C)CC[C@]3(C)[C@H](CC[C@@H]4[C@@]5(C)CCC(OC(=O)/C=C/c6ccc(O)c(O)c6)C(C)(C)[C@@H]5CC[C@]43C)[C@@H]12 (stereo partly drawn) [Compound 6, 30-hydroxy lup-20(29)-ene 3β-caffeate] gave an IC50 [1, 6] of 68 ± 1.72 µg/mL (≈ 112 µM), an IC50 [2, 6] of 68 ± 1.72 µg/mL (≈ 112 µM) and an IC50 [3, 6] of 68 ± 1.72 µg/mL (≈ 112 µM). It also gave an IC50 [4, 7] of 68 ± 0.3 µg/mL (≈ 112 µM).
In the case of C=C(C=O)C1CCC2(C)CCC3(C)C(CCC4C5(C)CCC(OC(=O)C=Cc6ccc(O)c(O)c6)C(C)(C)C5CCC43C)C12 (stereo not drawn) [Compound 7, lup-20(29)-ene 3β-caffeate-30-al], the IC50 [1, 6] is reported as 62 ± 1.42 µg/mL (≈ 103 µM), the IC50 [2, 6] is reported as 62 ± 1.42 µg/mL (≈ 103 µM) and the IC50 [3, 6] is reported as 62 ± 1.42 µg/mL (≈ 103 µM). For the same molecule, the IC50 [4, 7] was greater than 100 µg/mL.
CC[C@H](CC[C@@H](C)[C@H]1CC[C@H]2[C@@H]3CC=C4C[C@@H](O)CC[C@]4(C)[C@H]3CC[C@]12C)C(C)C [Compound 9, β-sitosterol] was tested, and the IC50 [1] was greater than 100 µg/mL, the IC50 [2] was greater than 100 µg/mL and the IC50 [3] was greater than 100 µg/mL. The IC50 ([4]; 48 h) was greater than 100 µg/mL and the “antitumor activity (in words)” value [5] was “no activity”.
For CC[C@H](CC[C@@H](C)C1CCC2C3C(O)C=C4C[C@@H](O)CC[C@]4(C)C3CC[C@@]21C)C(C)C (stereo partly drawn) [Compound 11, 7α-hydroxy-β-sitosterol], the IC50 [1, 6] was roughly 8 µg/mL (≈ 18.6 µM), the IC50 [2, 6] was roughly 8 µg/mL (≈ 18.6 µM) and the IC50 [3, 6] was roughly 8 µg/mL (≈ 18.6 µM). For the same molecule, the IC50 [4, 7] was 70 ± 0.5 µg/mL (≈ 163 µM), the inhibition at 2 µM (phosphodiesterase I; read-out: phosphodiesterase I enzyme inhibition) was 80.2% and the “wound healing of normal cells” value (Vero cell line) was “able to heal the wound at a rate closer to that observed for untreated cells; also recorded: wound size decreased”. For the same molecule, the “antitumor activity (in words)” value [5] was “broad-spectrum activity”.
CC[C@H](CC[C@@H](C)C1CCC2C3C(=O)C=C4C[C@@H](O)CC[C@]4(C)C3CC[C@@]21C)C(C)C (stereo partly drawn) [Compound 13, 7-keto-β-sitosterol] was tested, and the IC50 [1, 6] was 22.3 ± 0.24 µg/mL (≈ 52 µM), the IC50 [2, 6] was 22.3 ± 0.24 µg/mL (≈ 52 µM) and the IC50 [3, 6] was 22.3 ± 0.24 µg/mL (≈ 52 µM). For the same molecule, the IC50 [4, 7] was 64 ± 1.1 µg/mL (≈ 149 µM) and the “antitumor activity (in words)” value [5] was “moderate activity”.
For O=C(O)CN(CCN(CC(=O)O)CC(=O)O)CC(=O)O [EDTA, reference compound], the IC50 (phosphodiesterase I; positive control, read-out: IC50 ± SD, phosphodiesterase I) was 274 ± 0.007 µM.
